Here are results for one substance from US11471467B2, “Ruthenium complexes for treating cancer which comprises cancer stem cells” (UNIVERSIDADE DE SANTIAGO DE COMPOSTELA, priority 2016, dated 2022).

The test system of data set [1] is Panc185 and PancA6L cells. The data set is described as follows: Annexin V / DAPI staining of PDAC cells. The data set is classed as cell-based. On the procedure: FIG. 21. Cytotoxic effects of RuH2O on PDAC sphere cultures. Light micrographs and annexin-V staining of Panc185 and PancA6L cells after 72 hours of treatment with 100 μM of RuH2O.
FIG. 24. Induction of apoptosis in PDAC cells. Annexin-V staining of PDAC cells treated for 48 hours with 100 or 250 μM of RuH2O.
The effect of 100 μM of RuH2O on cultures rich in CSC was confirmed at the microscopic level and by measuring annexin V staining. […] Cell viability determined by the percentage of DAPI negative cells dropped by 50%.
To rule out the possibility that the effects mentioned above arise as a result of unspecific cytotoxic effects, adherent cultures (low in CSC) were treated for 48 hours with a single dose of RuH2O (100 or 250 μM) and their subsequent clonogenicity, self-renewal, and tumorigenicity was checked. […] The treated and untreated cells were then trypsinized and the percentage of apoptotic cells was analyzed.

The test system of data set [2] is guanosine monophosphate (GMP). The data set is described as follows: GMP binding (metallation) assay, HPLC. The conditions noted are these: complex 250 μM, GMP 750 μM, 10 mM phosphate buffer pH 7.5, 100 mM NaCl.
Description: High-performance liquid chromatography (HPLC) was carried out using Agilent 1100 liquid chromatography-mass spectrometer equipment. Analytical HPLC was carried out using a Phenomenex Luna-C18 reversed-phase analytical column (10×250 mm, 5 μm), 1 mL/min, with different gradients (see below). […] Electrospray ionization mass spectrometry (ESI/MS) was performed with an Agilent 1100 Series LC/MSD VL G1956A model in positive polarity mode.
First, guanosine monophosphate (GMP) metallating capacity of complex 1 was studied. To that end, complex 1 (250 μM) was mixed with 3 equivalents of GMP (750 μM) in 10 mM phosphate buffer (pH=7.5) and 100 mM NaCl.
To confirm that GMP metallation is completely orthogonal, competitive experiments were carried out with the other three nucleotides (AMP, CMP, and TMP). Specifically, complex 1 (250 μM) was mixed with GMP (3 equiv, 750 μM), AMP (3 equiv, 750 μM), TMP (3 equiv, 750 μM), and CMP (3 equiv, 750 μM) in 10 mM phosphate buffer (pH=7.5) and 100 mM NaCl.
To that end, complex 1 (250 μM) was mixed with GMP (3 equiv, 750 μM) in the presence of H-Lys(Boc)-OH (3 equiv, 750 μM) or Ac-Cys-OH (3 equiv, 750 μM) in 10 mM phosphate buffer (pH=7.5) and 100 mM NaCl.
Complex 4 (250 μM) was mixed with 3 equivalents of GMP (750 μM) in 10 mM phosphate buffer (pH=7.5) and 100 mM NaCl.
For data set [3], the system named is Panc185 and PancA6L cells. The data set is described as follows: qRT-PCR gene expression in adherent PDAC cultures. Format: cell-based. The conditions noted are these: 100 μM, 24 hours. On the procedure: FIG. 19. […] The RNA of Panc185 and PancA6L cells was extracted 24 hours after treatment with 100 μM of RuH2O. qRT-PCR analysis of Oct3/4, Sox2, and PGC1alpha was performed in cDNA generated from treated samples. […] Panc185 cells are also interchangeably referred to herein as 185 and 185 scd and Pacn6AL cells are also interchangeably referred to herein as A6L.
Furthermore, a reduction in PGC1alpha expression, a known c-MYC target, and a reduction in pluripotency-associated genes Oct3/4 and Sox2 were observed after treatment with 100 μM of RuH2O for 24 hours (FIG. 19).
Background: Real-time PCR tracks product formation cycle by cycle.

Another data set has as its system Panc185 cells. The data set is described as follows: Tumorigenicity of pretreated PDAC cells injected subcutaneously into NOD-SCID mice. The data set is classed as in vivo. On the procedure: FIG. 22. Effects of RuH2O on PDAC sphere formation. (A) Work sequence of the experiment for evaluating the effect of RuH2O in PDAC CSC (B) Light micrographs of spheres derived from Panc185 and PancA6L cells after 10 days of treatment with 250 μM of RuH2O FIG. 23. Effects of RuH2O on PDAC tumorigenicity in vivo. Panc185 cells were pretreated with RuH2O before subcutaneous injection into NOD-SCID (non-obese diabetic, severe combined immunodeficiency) mice. Tumors were extracted 12 weeks after injection and analyzed. A) Photographs of the tumors extracted from NOD-SCID mice 12 weeks after being injected with 10^4 or 10^3 Panc185 cells and pretreated with control (CTL) or 250 μM of RuH2O. (B) Summary of the numbers of tumors detected per injection with 10^4 or 10^3 Panc185 cells and pretreated with control (CTL) or 250 μM of RuH2O. (C) Weights of the tumors extracted from NOD-SCID mice 12 weeks after being injected with 10^4 or 10^3 Panc185 cells and pretreated with control (CTL) or 250 μM of RuH2O.
FIG. 27. Tumorigenicity of PDAC cells after treatment with RuH2O. PDAC cells were treated with the indicated concentrations of RuH2O for 48 hours and then injected subcutaneously into NOD-SCID mice. Tumors were extracted 7 or 11 weeks after injection.
The spheres were then disassociated and equal numbers of control-treated cells and RuH2O-treated cells were injected subcutaneously into immunocompromised NOD-SCID mice to evaluate the tumorigenicity thereof. Twelve weeks after the injection, the tumors were extracted and weighed. […] While 4 out of 4 injections and 5 out of 6 injections with 10,000 and 1,000 control-treated cells, respectively, led to tumors, only 1 out of every 6 injections with 10,000 RuH2O-treated cells led to tumor. […] Furthermore, the only tumor that developed in the mouse injected with 10,000 RuH2O-treated cells weighed 53 times less than the tumors formed in control-treated mice (0.0058 g with respect to 0.3118 g).
The trypsinized cells were then: 1) placed in a plate at a low confluence to evaluate their clonogenicity (FIG. 25); 2) repeatedly cultured in ultra-low adherent plates in serum-free DMEM/F12 supplemented with B27 for intervals of 7 days to evaluate sphere formation capacity over multiple generations (FIG. 26); and 3) subcutaneously injected into NOD-SCID mice to check their tumorigenicity as described above (FIG. 27).
Finally, the tumorigenicity of sphere-rich CSCs was studied as described above.

For data set [4], the system named is Panc185 and PancA6L cells. Kind of data set: ToxiLight BioAssay cytotoxicity (adenylate kinase release). The data set is classed as cell-based. Here is the method:
FIG. 20. Cytotoxic effects of RuH2O on PDAC cultures. Relative cell death was determined in adherent cultures (low in CSC) and spheres (rich in CSC) of Panc185 (A) and PancA6L (B) at 24, 48, and 72 hours after treatment with the indicated doses of RuH2O.
It was then studied if the […] c-MYC expression and the phenotype and transcriptional changes observed were cytotoxic. For this analysis, the ToxiLight™ BioAssay kit, a bioluminescent, non-destructive cytolysis assay kit designed for measuring the adenylate kinase (AK) enzyme released from damaged cells (FIG. 20), was used. Adherent cultures (low in CSC) and cultured spheres (rich in CSC) were treated with increasing doses of RuH2O and cytotoxicity was measured 24, 48, and 72 hours after treatment. In adherent cultures and in both assayed cell lines, toxicity was only observed at 72 hours (3-fold increase in dead cells) when the cells were treated with 250 μM of RuH2O.

Regarding [Ru(terpy) (bpy)H2O]^2+ [complex 2], the “percentage of apoptotic cells” value in data set [1] (adherent cultures, 100 or 250 μM, 48 hours) is given as “increase in the percentage of apoptotic cells was not observed”. Further, in data set [1] (spheres, 100 μM, 72 hours), the “appearance of spheres, annexin V staining” value was “visually smaller and apoptotic”; the “drop of cell viability (percentage of DAPI negative cells)” value is given as 50%. For the same substance, the “GMP metallation, conversion to monoadduct 3” value in data set [2] (30 min at room temperature in the dark) is recorded as 63%. Also, the “GMP metallation, conversion to monoadduct 3” value in data set [2] (30 min irradiation at 455 nm) is on record as “complete conversion”. In addition, in data set [3], the Oct3/4 expression result is “reduction”, the PGC1alpha expression result was “reduction” and the Sox2 expression entry was “reduction”. The tumor formation entry in the data set on Panc185 cells (1,000 sphere-derived cells pretreated with 250 μM, NOD-SCID mice, 12 weeks) is given as “Tumors did not form”. Besides, in the data set on Panc185 cells (10,000 pretreated cells, 12 weeks), the “tumor weight, times less than control-treated” value is 53 times. Besides, the tumor weight in the data set with Panc185 cells (10,000 pretreated cells, 12 weeks, the only tumor) was 0.0058 g. For the same substance, the tumorigenicity result in the data set on Panc185 cells (adherent cultures treated 48 hours, injected subcutaneously into NOD-SCID mice, 7 or 11 weeks) is “prevents clonogenicity, self-regeneration, and tumorigenicity”. In data set [4] (adherent cultures (low in CSC), both cell lines, 250 μM, 72 hours), the “increase in dead cells” value turned out to be 3 fold. In addition, the “toxicity (ToxiLight)” value in data set [4] (adherent cultures (low in CSC), single dose 100 or 250 μM, 48 hours) is reported as “no toxicity was observed”. Also, in data set [4] (spherical cultures (rich in CSC), 100 μM), the cell death entry was “induced cell death”.
